Results from ChEMBL document CHEMBL1147521 (Bioorg Med Chem Lett, 2004).

Assays:
[1] = molecular target: T1, Prostaglandin G/H synthase 1 (Ovis aries, UniProt P05979); experiment: In vitro inhibitory activity against prostaglandin G/H synthase 1 from ovine
T1 sequence (P05979 whole entry): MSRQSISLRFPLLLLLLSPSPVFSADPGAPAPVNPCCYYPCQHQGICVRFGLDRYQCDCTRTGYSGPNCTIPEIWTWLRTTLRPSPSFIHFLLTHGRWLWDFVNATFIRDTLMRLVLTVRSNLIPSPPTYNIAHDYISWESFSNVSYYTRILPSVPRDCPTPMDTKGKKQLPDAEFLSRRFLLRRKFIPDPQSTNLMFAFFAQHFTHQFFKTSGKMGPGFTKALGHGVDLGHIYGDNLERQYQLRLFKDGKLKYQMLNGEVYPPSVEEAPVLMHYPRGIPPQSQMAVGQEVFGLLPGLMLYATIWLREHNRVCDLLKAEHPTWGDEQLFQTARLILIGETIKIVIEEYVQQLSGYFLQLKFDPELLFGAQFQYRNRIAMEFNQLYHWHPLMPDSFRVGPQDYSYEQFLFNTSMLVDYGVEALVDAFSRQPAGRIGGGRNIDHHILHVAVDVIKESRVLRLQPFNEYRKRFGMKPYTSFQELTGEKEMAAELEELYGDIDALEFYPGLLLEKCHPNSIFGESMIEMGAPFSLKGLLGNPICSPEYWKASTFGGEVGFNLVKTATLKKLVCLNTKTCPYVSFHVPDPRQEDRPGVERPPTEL

[2] = molecular target: T2, Prostaglandin G/H synthase 2 (Ovis aries, UniProt P79208); experiment: In vitro inhibitory activity against prostaglandin G/H synthase 2 from ovine
T2 sequence (P79208 whole entry): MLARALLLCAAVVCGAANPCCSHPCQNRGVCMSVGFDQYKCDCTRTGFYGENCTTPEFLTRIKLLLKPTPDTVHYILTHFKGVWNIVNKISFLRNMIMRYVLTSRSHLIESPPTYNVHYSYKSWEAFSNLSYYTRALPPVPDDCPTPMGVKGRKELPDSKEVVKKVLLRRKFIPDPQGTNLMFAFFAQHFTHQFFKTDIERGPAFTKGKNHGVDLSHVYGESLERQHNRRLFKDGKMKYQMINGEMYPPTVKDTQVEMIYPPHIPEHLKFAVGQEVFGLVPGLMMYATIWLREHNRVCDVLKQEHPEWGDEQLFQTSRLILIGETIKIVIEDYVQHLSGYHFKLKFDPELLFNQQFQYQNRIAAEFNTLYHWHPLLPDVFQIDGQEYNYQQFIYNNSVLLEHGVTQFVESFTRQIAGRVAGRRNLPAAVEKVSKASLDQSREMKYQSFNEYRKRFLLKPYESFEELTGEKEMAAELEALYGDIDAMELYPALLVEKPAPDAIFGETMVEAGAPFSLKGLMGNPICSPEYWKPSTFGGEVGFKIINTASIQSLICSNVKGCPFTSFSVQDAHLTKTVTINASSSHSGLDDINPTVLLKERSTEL

Row | IC50 [1] | IC50 [2] | Structure (SMILES)
1 | > 100 µM | > 100 µM | CS(=O)(=O)c1ccc(C2=C(c3ccc(S(N)(=O)=O)cc3)COC2=O)cc1
2 | > 100 µM | 3.1 µM | CS(=O)(=O)c1ccc(C2=C(c3ccc(S(=O)(=O)N=[N+]=[N-])cc3)COC2=O)cc1
3 | > 100 µM | 0.05 µM | CC(=O)NS(=O)(=O)c1ccc(C2=C(c3ccc(S(C)(=O)=O)cc3)C(=O)OC2)cc1
4 | > 100 µM | > 100 µM | CS(=O)(=O)c1ccc(C2=C(c3ccc(S(N)(=O)=O)cc3)C(=O)OC2)cc1
5 | 3.2 µM | 4.6 µM | CC(=O)NS(=O)(=O)c1ccc(C2=C(c3ccc(S(C)(=O)=O)cc3)COC2=O)cc1
6 | 31.5 µM | 11 µM | CS(=O)(=O)c1ccc(C2=C(c3ccc(S(=O)(=O)N=[N+]=[N-])cc3)C(=O)OC2)cc1

Row | Structure (SMILES) | IC50 [1] | IC50 [2]
7 | CS(=O)(=O)c1ccc(C2=C(c3ccccc3)C(=O)OC2)cc1 [ROFECOXIB] |  | > 0.43 µM
